Laboratory results taken from PubChem BioAssay AID463229 (Broad Institute, 2010).
Activity calls are given as the source filed them.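 Rule for the calls: active = compounds raising the signal whose fitted half-maximal concentration is at or below their top tested dose (cut at about 25 µM in these data); inconclusive = flat fit at 30 to 70% activity, or a poor fit; inactive = the rest.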

The compounds below were run on INS-1E rat beta cells, no cytokines, CellTiter-Glo ATP, 48 h (assay: cytokine-free beta-cell viability effect – INS-1E rat cells, ATP luminescence, cherry pick, counter-screen for beta-cell apoptosis protection project, dose response (AID 463229)).

| Compound | AC50 |
| --- | --- |
| O=C(NNC(=O)C12CC3CC(CC(C3)C1)C2)c1ccccn1 | 12.7 µM |
| O=C(N/N=C/c1ccc(O)c2ncccc12)c1cccc(Br)c1 | 3.05 µM |
| c1ccc(CSc2ccc(-c3ccccn3)nn2)cc1 | 18.8 µM |
| C=C1[C@@H](O)[C@@H]2O[C@]3(CC[C@H](/C=C/[C@@H](C)[C@@H]4CC(C)=CC5(O[C@H](C[C@@](C)(O)C(=O)OC)CC[C@H]5O)O4)O3)CC[C@H]2O[C@@H]1[C@@H](O)C[C@H](C)[C@H]1OC2(CCCCO2)CC[C@H]1C (stereo partly specified) | < 0.195 µM |
| COc1ccc(Nc2ccc3c(c2)=NC2(CCCCC2)[N+]=3[O-])cc1 | 7.8 µM |
| CCC1CCCCN1C(=O)c1cc(COc2ccc(-n3cncn3)cc2)on1 (stereo unspecified) | 16.5 µM |
| CCCCC(=O)NC(c1ccc(N(C)C)cc1)c1ccc2cccnc2c1O (stereo unspecified) | 1.6 µM |
| Oc1c(Cl)cc(Cl)cc1/C=N/Nc1ncc(Br)cn1 | 3.94 µM |
| CS(=O)(=O)N(CC(=O)Nc1ccc(CC#N)cc1)c1ccc(C23CC4CC(CC(C4)C2)C3)cc1 | 7.41 µM |
| CC(NCC(O)COCCC12CC3CC(CC(C3)C1)C2)c1ccccc1 (stereo unspecified) | 8.29 µM |
| O=C(N/N=C/c1ccc([N+](=O)[O-])o1)c1cc2ccccc2o1 | 6.22 µM |
| CCC(C)(C)c1ccc(OCCCC[n+]2ccc(C)cc2)c(C(C)(C)CC)c1 | 1.91 µM |
| CCCC(=O)NC(c1ccc(OC)cc1)c1ccc2cccnc2c1O (stereo unspecified) | 2.4 µM |
| S=c1[nH]nc(-c2cc(-c3ccccc3)n[nH]2)n1/N=C/C(Br)=C/c1ccccc1 | 8.81 µM |
| CCn1c(SCC(=O)Nc2cc(C)on2)nc2sc3c(c2c1=O)CCCC3 | 16.7 µM |
| CNC[C@H](Cc1ccccc1)NC[C@@H](Cc1cccc2ccccc12)NCCc1ccc(C)cc1 | 7.64 µM |
| COc1cccc(COc2cc3ccccc3nc2C)c1 | 3.51 µM |
| CCCCCCC[N+](CC)(CC)CCCCc1ccc(Cl)cc1 | 4.93 µM |
| O=c1[nH]c(=O)n(Cc2ccco2)c2c1C(C(F)(F)F)(C(F)(F)F)N=C(c1ccc(F)cc1)N2 | 1.39 µM |
| COC(=O)c1sc(-c2ccc(C(C)(C)C)cc2)cc1NC(=O)/C=C/C(=O)O | 13.8 µM |
| CCC1(c2ccc(F)cc2)NC(=O)N(CC(=O)Nc2ccc(-c3nc4ccc(C)cc4s3)cc2)C1=O (stereo unspecified) | 12.4 µM |
| CCCOc1ccc(/C=N/Nc2cc(N3CCOCC3)ncn2)c(O)c1 | 8.02 µM |
| CN(C)CCNC(=O)/C(=C/c1ccc(-c2ccc(Cl)cc2Cl)o1)NC(=O)c1ccccc1 | 9.44 µM |
| O=C(NCC#CCSc1nnc(-c2cccc3ccccc23)o1)c1cccs1 | 1.9 µM |
| c1ccc(CNc2c(-c3cccc(SC4CCCCC4)c3)nc3ccccn23)cc1 | 2.98 µM |
| CCOC(=O)c1sc(NC(=O)c2c(C)nn(Cc3ccccc3)c2C)cc1C | > 26 µM (inactive) |

| Compound | AC50 |
| --- | --- |
| Oc1c(Br)cc(Br)cc1/C=N/Nc1ccc(Cl)nn1 | 1.21 µM |
| CC1CC(=O)c2c(cc3c(-c4c(O)cc(O)c5c(O)c6c(cc45)OC(C)CC6=O)c(O)cc(O)c3c2O)O1 (stereo unspecified) | 5.1 µM |
| O=C(NCc1cccnc1)/C(=C\c1ccc(-c2cccc(Cl)c2)o1)S(=O)(=O)c1ccccc1 | 6.78 µM |
| Cc1onc(-c2ccccc2)c1C(=O)NC(=S)NNC(=O)c1ccc(O)cc1O | 0.657 µM |
| O=C(C#Cc1ccccc1)c1ccco1 | 7.8 µM |
| Cc1ccc(O)c(N=Nc2nccs2)c1 | 7.04 µM |
| Cc1ccc(C(=O)N2N=C(c3ccc(Br)cc3)CC2c2ccccc2O)cc1 (stereo unspecified) | 7.3 µM |
| Cc1nc(N2CCN(C(=O)c3ccco3)CC2)c2c3c(sc2n1)CC(C)CC3 (stereo unspecified) | 5.51 µM |
| O=C(Oc1c(CN2CCOCC2)cc(Cl)c2cccnc12)c1ccccc1 | 17.1 µM |
| CCN1CCN(c2ccc(S(=O)(=O)N3CCCCC3)cc2NC(=O)c2ccc([N+](=O)[O-])s2)CC1 | 6.94 µM |
| CCN1/C(=C/c2ccc3cc(C)ccc3[n+]2CC)Sc2ccc3sccc3c21 | 0.316 µM |
| CC1(C)C(C=C(Cl)Cl)C1C(=O)Nc1ccc([N+](=O)[O-])cc1 (stereo unspecified) | 7.7 µM |
| COc1ccc(Cl)c(Cn2c(NCc3ccco3)nc3c2c(=O)n(C)c(=O)n3C)c1 | 13.1 µM |
| Cc1ncc(CO)c(/C=N/Nc2ccc(C(F)(F)F)cn2)c1O | 5.17 µM |
| C[n+]1c2n(c3ccccc31)N=C(c1cc(C(C)(C)C)c(O)c(C(C)(C)C)c1)CS2 | 0.39 µM |
| O=S1(=O)C=C(Sc2nc3ccccc3s2)c2ccccc21 | 5.35 µM |
| COc1cnc(-c2ccccn2)nc1Sc1ccc(C)cc1 | 17.2 µM |
| O=[N+]([O-])c1ccc(O)c(-c2cc(C(F)(F)F)nc(-c3ccccc3)n2)c1 | 1.59 µM |
| O=C(Nc1ccc(C(=O)Nc2ccccc2Cl)cc1)c1cccnc1 | 1.85 µM |
| CN(C)CCCN(C(=O)COc1ccc(Cl)cc1)c1nc2cc3c(cc2s1)OCO3 | 15.6 µM |
| COc1cc(SC#N)ccc1N=Cc1c(C)[nH]n(-c2ccc(C)c(C)c2)c1=O | 5.85 µM |
| CC1CC(C)CN(S(=O)(=O)c2ccc(C(=O)NCCCn3ccnc3)cc2)C1 (stereo unspecified) | 0.577 µM |
| COc1ccc(CNc2ncnc3sccc23)cc1 | 11.3 µM |
| C/C(=N\NC(=O)c1c(C)nc2ccccn12)c1ccc(O)cc1O | 19.5 µM |
| Clc1ccccc1Nc1nnc(-c2ccncc2)s1 | 4.64 µM |
| COc1ccc2cc1Oc1ccc(cc1)C[C@H]1c3c(cc(OC)c4c3Oc3c(ccc5c3[C@H](C2)N(C)CC5)O4)CCN1C | 7.68 µM |

| Compound | AC50 |
| --- | --- |
| COc1ccc(CNCCC(c2ccccc2)c2ccc3c(c2)OCO3)cc1 (stereo unspecified) | 15.2 µM |
| Cc1ccc(C(C)C)c(OCc2nn(CC(=O)c3ccc(OC(F)F)cc3)c3[n+]2CCCCC3)c1 | 4.43 µM |
| COc1ccc(-n2cc(-c3ccccc3)[n+]3c2CCCCC3)cc1 | 1.94 µM |
| N#C/C(N=Nc1ccccc1O)=N\Nc1ccccc1O | 4.12 µM |
| O=c1c2ccccc2nc(COc2ccccc2)n1/N=C/c1cc([N+](=O)[O-])ccc1O | 14.7 µM |
| CCn1cc(/C=C/c2cc[n+](C)cc2)c2ccccc21 | 4.44 µM |
| O=C(Nc1ccc(N2CCN(C(=O)c3ccc(Cl)cc3)CC2)cc1)c1cccnc1 | 18.7 µM |
| O=[N+]([O-])c1ccc(N=Nc2c(Cl)cc(O)cc2Cl)cc1 | 2.08 µM |
| Cn1cc(CNCc2ccc(OC(F)(F)F)cc2)c(-c2ccc3c(c2)OCCO3)n1 | 3.64 µM |
| CC(C)(C)C(=O)Nc1ccc(C(=O)N/N=C/c2ccccc2OC(=O)c2ccc(Cl)cc2)cc1 | 11.8 µM |
| C/C(=N\NC(=O)C(C)Oc1ccc([N+](=O)[O-])cc1)c1ccccn1 (stereo unspecified) | 4.2 µM |
| CCC(C)(C)c1ccc(OCCCC[n+]2cccc(C)c2C)c(C(C)(C)CC)c1 | 0.804 µM |
| CCC(=O)NC(c1ccc(C)cc1)c1cc(Cl)c2cccnc2c1O (stereo unspecified) | 7.97 µM |
| CC(C)(C)CN1CCC(Oc2cccc(C(=O)NCCCOc3cccnc3)c2)CC1 | 2.13 µM |
| c1ccc(-c2csc3ncnc(NCC4COc5ccccc5O4)c23)cc1 (stereo unspecified) | 2.79 µM |
| Cc1cc(C(=O)NC2CCCc3c2cnn3-c2ccc(C)c(C)c2)n(C)n1 (stereo unspecified) | 0.378 µM |
| Cc1ccccc1Oc1cc(-n2ncc(Cl)c(Cl)c2=O)ncn1 | 3.98 µM |
| Cc1[nH]c(N=Nc2ccccc2)nc1N=Nc1ccccc1 | 8.16 µM |
| NC1=NC[C@@H](CC2CCCCC2)N1CCc1cc(C(F)(F)F)cc(C(F)(F)F)c1 | 9.46 µM |
| O=[N+]([O-])c1ccc(-[n+]2ccc3ccccc3c2)c([N+](=O)[O-])c1 | 7.89 µM |
| Cc1ccc(-c2cc(-c3ccccc3)cc(-c3ccccc3)[n+]2-c2ccccc2)cc1 | 2.08 µM |
| O=C(N/N=C/c1c(O)ccc2ccccc12)c1[nH]ncc1Br | 2.16 µM |
| Cc1ccc(C)n1-c1ccc(C(=O)Nc2ccccc2)cc1 | > 26 µM (inactive) |
| COC(=O)C1=C(C)N(Cc2ccccc2)C(=NCc2ccccc2)N[C@H]1c1cccc(C(F)(F)F)c1 | 14.1 µM |
